# From patent publication US20230086703A1, “N-(4-(5-chloropyridin-3-yl)phenyl)-2-(2-(cyclopropanesulfonamido)pyrimidin-4-yl) butanamide derivatives and related compounds as human CTPS1 inhibitors for the treatment of proliferative diseases” (Step Pharma S.A.S., priority 2019, published 2023)
# Assays:
# human CTPS1 [1] = molecular target: T1, human CTPS1 (Homo sapiens, UniProt P17812); assay: RapidFire/MS-based enzyme selectivity assay (human CTPS1 versus CTPS2), CTPS1 isoform; type: biochemical
# T1 construct: FLAG (with GG linker); His8 (with GG linker); purchased Proteros biostructures GmbH
# T1 sequence (P17812 1-591): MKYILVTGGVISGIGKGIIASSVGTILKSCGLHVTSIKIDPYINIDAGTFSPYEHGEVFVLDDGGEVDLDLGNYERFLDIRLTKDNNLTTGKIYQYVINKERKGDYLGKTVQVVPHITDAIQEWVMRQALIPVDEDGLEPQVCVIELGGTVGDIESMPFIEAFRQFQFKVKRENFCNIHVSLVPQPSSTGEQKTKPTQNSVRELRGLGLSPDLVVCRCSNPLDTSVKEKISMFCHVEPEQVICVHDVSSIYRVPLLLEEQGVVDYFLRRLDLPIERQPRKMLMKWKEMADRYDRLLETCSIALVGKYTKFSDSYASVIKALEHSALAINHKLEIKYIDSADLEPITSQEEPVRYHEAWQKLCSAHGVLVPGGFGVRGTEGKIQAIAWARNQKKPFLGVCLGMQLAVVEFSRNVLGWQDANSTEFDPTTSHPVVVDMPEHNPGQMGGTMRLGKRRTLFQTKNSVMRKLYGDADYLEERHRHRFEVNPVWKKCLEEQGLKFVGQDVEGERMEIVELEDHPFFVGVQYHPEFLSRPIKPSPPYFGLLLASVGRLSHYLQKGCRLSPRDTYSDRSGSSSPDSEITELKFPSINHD
# Experimental: Human CTPS1 Versus CTPS2 Selectivity Assessment by RapidFire/MS Analysis.
# The enzyme inhibitory activities against each target isoform of interest may be determined for the compounds of the invention using an optimised RapidFire high-throughput mass spectrometry (RF/MS) assay format. RF/MS assays for both human CTPS1 and CTPS2 may be performed in assay buffer consisting of 50 mM HEPES (Merck), 20 mM MgCl2, 5 mM KCl, 1 mM DTT, 0.01% Tween-20, pH to 8.0 accordingly. Human full-length active C-terminal FLAG-His-tag CTPS1 (UniProtKB—P17812, CTPS1[1-591]-[…] (CTPS1[1-591]-SEQ ID NO: 1)) may be obtained from Proteros biostructures GmbH. Human full length active C-terminal FLAG-His-Avi tagged CTPS2 (UniProtKB—Q9NRF8, CTPS2 [1-586]-[…] (CTPS2 [1-586]—SEQ ID NO: 2)) may be obtained from Harker Bio.
# Human CTPS (1 or 2) protein may be prepared in 1× assay buffer to the final working protein concentration required for the reaction. A 2 uL volume per well of 2×CTPS (1 or 2) protein may be mixed with 40 nL of compound using acoustic (ECHO) delivery and incubated for 10 minutes at 25° C. Each isoform enzymatic reaction may be subsequently initiated by addition of 2 uL per well of a 2× substrate mix in assay buffer. For hCTPS1: ATP (0.3 mM), UTP (0.2 mM), GTP (0.07 mM) and L-glutamine (0.1 mM). For hCTPS2: ATP (0.1 mM), UTP (0.04 mM), GTP (0.03 mM) and L-glutamine (0.1 mM). Each mixture may be incubated for an appropriate amount of time per isoform within the determined linear phase of the reaction at 25° C. A 80 uL volume of stop solution (1% formic acid with 0.5 uM ^13C9-^15N3-CTP in H2O) may be added and the plate immediately heat-sealed and centrifuged for 10 minutes at 4,000 rpm. Following centrifugation, plates may be loaded onto the Agilent RapidFire microfluidic solid phase extraction system coupled to an API4000 triple quadrupole mass spectrometer (RF/MS) for analysis.
# In all cases, the enzyme converts UTP to CTP. Highly specific and sensitive multiple reaction monitoring (MRM) MS methods may be optimised for the detection of the enzymatic reaction product, CTP, and the stable isotope labelled product standard ^13C9-^15N3-CTP. Readout for data analysis may be calculated as the ratio between the peak area of the product CTP and the internal standard ^13C9-^15N3-CTP. For data reporting, the following equation may be used:
# (R=ratio/readout, P=product signal area, IS=internal standard signal area)
# For each screening plate, the means of the negative (DMSO) and positive control values were used for the calculation of the respective assay window (S/B) and Z′ values. The median of the respective control values was used for calculation of percent inhibition according to the following equation:
# (I=Inhibition, Rneq=median of negative control readout values, Rpos=median of positive control readout values, Rsample=sample readout value)
# Percentage inhibition was then plotted against compound concentration, and the 50% inhibitory concentration (IC50) was determined from the resultant concentration-response curve.
# Fold selectivity between CTPS1 and CTPS2 was subsequently calculated according to the following equation: […]
# human CTPS1 [2] = molecular target: T1, human CTPS1; assay: Human CTPS1 enzyme inhibition, ADP-Glo Max assay; type: biochemical; settings: ADP-Glo Max assay; Table 10; read-out: Human CTPS1 Enzyme Inhibition, IC50 grouped by potency range (CTPS1)
# In short: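 Enzyme preincubated with compound for 10 min at 25 °C in 50 mM Tris pH 8.0, 10 mM MgCl2, 0.01% Tween-20, 2 mM L-cysteine. ATP-to-ADP conversion detected by ADP-Glo Max luminescence after 60 min depletion and 60 min development steps. Percentage inhibition calculated per concentration.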
# [3] = RapidFire/MS IC50 values of CTPS1 and CTPS2, Table 15
Structure (SMILES),Selectivity (fold selectivity between CTPS1 and CTPS2) (human CTPS1 [1]; [3]),IC50 (human CTPS1 [2]) [nM],other results
"CCOc1cncc(-c2ccc(NC(=O)C(C)(C)c3ccnc(NS(=O)(=O)C4CC4)n3)nc2)n1 [P31, 2-(2-(cyclopropanesulfonamido)pyrimidin-4-yl)-N-(5-(6-ethoxypyrazin-2-yl)pyridin-2-yl)-2-methylpropanamide]",+++ (>60 fold (+++)),,
"CC(C)(NC(=O)c1ccc(-c2cncc(C(F)(F)F)n2)cc1F)c1csc(NS(=O)(=O)C2CC2)n1 [R42, N-(2-(2-(cyclopropanesulfonamido)thiazol-4-yl)propan-2-yl)-2-fluoro-4-(6-(trifluoromethyl)pyrazin-2-yl)benzamide]",,,"Selectivity (fold selectivity between CTPS1 and CTPS2) (human CTPS1 [1]; Table 16, human CTPS1 over human CTPS2, RapidFire/MS IC50 values): ++ (>30-60 fold (++))"
"CCOc1cncc(-c2ccc(NC(=O)C(C)(CCOC)c3cncc(NS(=O)(=O)C4CC4)n3)nc2)n1 (stereo not drawn) [P198, 2-(6-(cyclopropanesulfonamido)pyrazin-2-yl)-N-(5-(6-ethoxypyrazin-2-yl)pyridin-2-yl)-4-methoxy-2-methylbutanamide]",+++ (>60 fold (+++)),,
"CCOc1cncc(-c2ccc(NC(=O)C(C)(C)c3cncc(NS(=O)(=O)C4CC4)n3)cc2)n1 [P196, 2-(6-(cyclopropanesulfonamido)pyrazin-2-yl)-N-(4-(6-ethoxypyrazin-2-yl)phenyl)-2-methylpropanamide]",+++ (>60 fold (+++)),,
"CCOc1cncc(-c2ccc(NC(=O)C(C)(CC)c3ccnc(NS(=O)(=O)C4CC4)n3)nc2)n1 (stereo not drawn) [P163, 2-(2-(cyclopropanesulfonamido)pyrimidin-4-yl)-N-(5-(6-ethoxypyrazin-2-yl)pyridin-2-yl)-2-methylbutanamide]",+++ (>60 fold (+++)),,
"CCOc1cncc(-c2ccc(NC(=O)C(C)(C)c3cncc(NS(=O)(=O)C4CC4)n3)nc2)n1 [P195, 2-(6-(cyclopropanesulfonamido)pyrazin-2-yl)-N-(5-(6-ethoxypyrazin-2-yl)pyridin-2-yl)-2-methylpropanamide]",+++ (>60 fold (+++)),,
"O=C(Cc1ccnc(NS(=O)(=O)C2CC2)n1)Nc1ccc(-c2cccnc2)cc1 [P16, 2-(2-(cyclopropanesulfonamido)pyrimidin-4-yl)-N-(4-(pyridin-3-yl)phenyl)acetamide]",++ (>30-60 fold (++)),,
"CCOc1cncc(-c2ccc(NC(=O)C(CC)c3cncc(NS(=O)(=O)C4CC4)n3)cc2)n1 (stereo not drawn) [P202, 2-(6-(cyclopropanesulfonamido)pyrazin-2-yl)-N-(4-(6-ethoxypyrazin-2-yl)phenyl)butanamide]",+++ (>60 fold (+++)),,
"CCOc1cncc(-c2cnc(NC(=O)C(CC)c3ccnc(NS(=O)(=O)C4CC4)n3)c(F)c2)n1 (stereo not drawn) [P162, 2-(2-(cyclopropanesulfonamido)pyrimidin-4-yl)-N-(5-(6-ethoxypyrazin-2-yl)-3-fluoropyridin-2-yl)butanamide]",++ (>30-60 fold (++)),,
"CCOc1cncc(-c2ccc(NC(=O)C(F)(CC)c3ccnc(NS(=O)(=O)C4CC4)n3)nc2)n1 (single isomer, unassigned) [P113, 2-(2-(Cyclopropanesulfonamido)pyrimidin-4-yl)-N-(5-(6-ethoxypyrazin-2-yl)pyridin-2-yl)-2-fluorobutanamide]",+ (2-30 fold (+)),,
CCOc1cncc(-c2ccc(NC(=O)C3(c4ccnc(NS(=O)(=O)N(C)C)n4)CCOCC3)nc2)n1 [P248],,,"Selectivity (fold selectivity between CTPS1 and CTPS2) (human CTPS1 [1]; RapidFire/MS IC50 values of CTPS1 and CTPS2, Table 17): +++ (>60 fold (+++))"
"CC(C)(C(=O)Nc1ccc(-c2cncc(C(F)(F)F)c2)cc1)c1csc(NS(=O)(=O)C2CC2)n1 [T48, 2-(2-(cyclopropanesulfonamido)thiazol-4-yl)-2-methyl-N-(4-(5-(trifluoromethyl)pyridin-3-yl)phenyl)propanamide]",,< 100,
"COc1cncc(-c2ccc(NC(=O)C(C)(C)c3csc(NS(=O)(=O)C4CC4)n3)c(F)c2)n1 [T275, 2-(2-(cyclopropanesulfonamido)thiazol-4-yl)-N-(2-fluoro-4-(6-methoxypyrazin-2-yl)phenyl)-2-methylpropanamide]",,< 100,
"Cc1ncc(Cl)nc1-c1ccc(NC(=O)C(C)(C)c2csc(NS(=O)(=O)C3CC3)n2)cc1 [T276, N-(4-(6-chloro-3-methylpyrazin-2-yl)phenyl)-2-(2-(cyclopropanesulfonamido)thiazol-4-yl)-2-methylpropanamide]",,100 to 1000,
"CC(C)(C(=O)Nc1ccc(-c2cncc(OC3CC3)n2)cc1)c1csc(NS(=O)(=O)C2CC2)n1 [T273, 2-(2-(cyclopropanesulfonamido)thiazol-4-yl)-N-(4-(6-cyclopropoxypyrazin-2-yl)phenyl)-2-methylpropanamide]",,< 100,
"CC(C)(C(=O)Nc1ccc(-c2cccnc2)cc1)c1csc(NS(=O)(=O)C(C)(C)C)n1 [T303, 2-(2-((1,1-dimethylethyl)sulfonamido)thiazol-4-yl)-2-methyl-N-(4-(pyridin-3-yl)phenyl)propanamide]",,1000 to 10000,
"COc1ncc(-c2ccc(NC(=O)C(C)(C)c3csc(NS(=O)(=O)C4CC4)n3)cc2)cc1C [T251, 2-(2-(cyclopropanesulfonamido)thiazol-4-yl)-N-(4-(6-methoxy-5-methylpyridin-3-yl)phenyl)-2-methylpropanamide]",,1000 to 10000,
"Cc1c(Cl)cncc1-c1ccc(NC(=O)C(C)(C)c2csc(NS(=O)(=O)C3CC3)n2)cc1 [T428, N-(4-(5-chloro-4-methylpyridin-3-yl)phenyl)-2-(2-(cyclopropanesulfonamido)thiazol-4-yl)-2-methylpropanamide]",,100 to 1000,
"CC(C)(C(=O)Nc1ccc(-c2ccccc2)nc1)c1csc(NS(=O)(=O)C2CC2)n1 [T239, 2-(2-(cyclopropanesulfonamido)thiazol-4-yl)-2-methyl-N-(6-phenylpyridin-3-yl)propanamide]",,100 to 1000,
"CCOc1cc(NC(=O)C(C)(C)c2csc(NS(=O)(=O)C3CC3)n2)ccc1-c1cncc(C#N)c1 [T289, N-(4-(5-cyanopyridin-3-yl)-3-ethoxyphenyl)-2-(2-(cyclopropanesulfonamido)thiazol-4-yl)-2-methylpropanamide]",,100 to 1000,
"CN(C(=O)C(C)(C)c1csc(NS(=O)(=O)C2CC2)n1)c1ccc(-c2cncc(C#N)c2)cc1 [T309, N-(4-(5-cyanopyridin-3-yl)phenyl)-2-(2-(cyclopropanesulfonamido)thiazol-4-yl)-N,2-dimethylpropanamide]",,1000 to 10000,
